From publication PMC9608462 (Molecules, 2022)
Where two headings read alike, the source gives them in different places.

Legend:
human ERα = biological target: T1, human ERα (Homo sapiens, UniProt P03372); experiment: Fluorescence polarization ER/D22 coactivator-peptide assay, ERα; format: biochemical; settings: for agonistic/antagonistic activity for ERα: fluorescence polarisation, recombinant receptor; for EC50: recombinant human ERα, D22 peptide, 1 h
T1 construct: purchased Panvera (Göttingen, Germany)
T1 sequence (P03372 1-595): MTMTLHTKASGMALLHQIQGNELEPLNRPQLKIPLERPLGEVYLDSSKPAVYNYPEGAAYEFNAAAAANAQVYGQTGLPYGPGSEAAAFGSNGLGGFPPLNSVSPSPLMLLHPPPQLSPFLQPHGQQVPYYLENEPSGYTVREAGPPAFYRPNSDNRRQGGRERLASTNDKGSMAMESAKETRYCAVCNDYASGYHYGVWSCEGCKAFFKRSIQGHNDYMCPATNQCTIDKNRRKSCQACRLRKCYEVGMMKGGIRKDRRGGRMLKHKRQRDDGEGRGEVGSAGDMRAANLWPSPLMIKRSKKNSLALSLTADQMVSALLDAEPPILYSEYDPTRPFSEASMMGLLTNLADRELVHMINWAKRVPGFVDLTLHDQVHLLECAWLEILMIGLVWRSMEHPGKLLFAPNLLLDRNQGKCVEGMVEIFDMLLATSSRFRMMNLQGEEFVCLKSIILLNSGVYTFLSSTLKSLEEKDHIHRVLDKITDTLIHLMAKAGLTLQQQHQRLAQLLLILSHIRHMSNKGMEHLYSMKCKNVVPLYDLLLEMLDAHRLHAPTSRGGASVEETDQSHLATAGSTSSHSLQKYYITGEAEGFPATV
Procedure: (§1) Binding affinities to ERα and ERβ were determined by the dose dependence binding of the test compounds with purified human Erα and Erβ. All chemicals were obtained from Panvera (Göttingen, Germany). The assay was performed according to the protocols recommended by the manufacturer. […] D22 is a coactivator-like peptide containing an LXXLL motif and flanking sequences that resemble known coactivators. Agonist-bound ER (ERα or ERβ) can recruit D22, resulting in a more significant fraction of bound D22 and a larger polarization value. Antagonist-bound ER has a lower affinity for D22, yielding a more significant fraction of unbound D22 and a lower polarization value. Recombinant human ERα or ERβ were incubated with the tested compounds for one hour. Fluorescence polarization was measured using a Tecan Ultra Evolution multiwell plate reader (Tecan, Crailsheim, Germany) at excitation wavelength 540 nm and emission wavelength 580 nm. […] The EC50 values were derived by logarithmic curve-fitting from binding curves using GraphPad Prism 8.4.3. GraphPad Software, San Diego, California, USA. EC50 was determined from at least three independent experiments.

human ERβ = biological target: T2, human ERβ (Homo sapiens, UniProt Q92731); experiment: Fluorescence polarization ER/D22 coactivator-peptide assay, ERβ; format: biochemical; settings: for agonistic/antagonistic activity for ERβ: fluorescence polarisation, recombinant receptor; for EC50: recombinant human ERβ, D22 peptide, 1 h
T2 construct: purchased Panvera (Göttingen, Germany)
Procedure: as §1

Ishikawa cells = Ishikawa cells proliferation (alkaline phosphatase activity); format: cell-based, human; settings: for alkaline phosphatase activity of Ishikawa cells: 10^3–10^4 nM; for alkaline phosphatase activity of Ishikawa cells / alkaline phosphatase activity / proliferation of Ishikawa cells: 72 h; for alkaline phosphatase activity / proliferation of Ishikawa cells: 10–100 nM
Procedure: The estrogen-stimulated proliferation of Ishikawa cells was performed according to Wober and coworkers with some modifications: Ishikawa cells were seeded at a density of 5 × 10^3 cells/well in 96-well plates in phenol red-free DMEM/F12 containing 10% charcoal dextran-treated FBS. After 72 h, cells were washed with PBS and kept in the same media for the next 24 h. Then, the medium was changed, and cells were incubated with the tested compounds at concentrations ranging from 10^1 to 10^4 nM for 72 h. As a positive control, E2 at a concentration of 1 nM was used. […] The treated cells were grown for 72 h. The estrogenic stimulation was evaluated by alkaline phosphatase activity. After incubation, the cells were washed with PBS, and the plates were frozen at −20 °C until analysis. After thawing, the plates were warmed in a water bath up to 22 °C and incubated with the p-Nitrophenyl Phosphate Liquid Substrate System (Sigma-Aldrich). This ready-to-use, single-solution reagent contains p-nitrophenyl phosphate, buffer and the necessary magnesium cations. Alkaline phosphatase releases p-nitrophenol, measured kinetically at 405 nm using plate reader Biotek Instruments, Elx-800, Winooski, VT, USA).

MCF-7 cells = MCF-7 cells proliferation (Hoechst 33258 DNA fluorescence); format: cell-based, human; settings: for DNA level / DNA synthesis of MCF-7 cells: 10^3–10^4 nM
Procedure: The estrogen-stimulated proliferation of MCF-7 cells was performed using Hoechst 33258 DNA staining. […] After 24 h, cells were washed with PBS and kept in the same media for the next 48 h. Then, cells were incubated with tested compounds at concentrations ranging from 10^1 to 10^4 nM for 96 h. E2 at 1 nM and 10 nM was used as a positive control. […] Proliferation was assessed by the fluorometric measurement of DNA. For this purpose, cells were washed with PBS, lysed using EDTA (0.5 mL, […], pH 12.3) at 37 °C for 30 min and neutralized with 10 mM KH2PO4, and then, Hoechst 33258 (1 mg/mL) was added. Excitation at 350 nm and emission at 455 nm was used for fluorescence measurement using Tecan Infinite M Plex microplate reader (Männedorf, Switzerland).

[1] = system: MCF-7 cells transfected with luciferase reporter gene; settings: read-out: EC50 of luciferase expression; cited from earlier work
[2] = system: human endometrial adenocarcinoma cells (Ishikawa); settings: read-out: IC50, suppression of E2-induced expression of alkaline phosphatase; cited from earlier work
[3] = system: human endometrial adenocarcinoma cells (Ishikawa); settings: E2-induced; cited from earlier work
[4] = 100–1000 nM (as in conclusions)

T2 sequence (Q92731 whole entry): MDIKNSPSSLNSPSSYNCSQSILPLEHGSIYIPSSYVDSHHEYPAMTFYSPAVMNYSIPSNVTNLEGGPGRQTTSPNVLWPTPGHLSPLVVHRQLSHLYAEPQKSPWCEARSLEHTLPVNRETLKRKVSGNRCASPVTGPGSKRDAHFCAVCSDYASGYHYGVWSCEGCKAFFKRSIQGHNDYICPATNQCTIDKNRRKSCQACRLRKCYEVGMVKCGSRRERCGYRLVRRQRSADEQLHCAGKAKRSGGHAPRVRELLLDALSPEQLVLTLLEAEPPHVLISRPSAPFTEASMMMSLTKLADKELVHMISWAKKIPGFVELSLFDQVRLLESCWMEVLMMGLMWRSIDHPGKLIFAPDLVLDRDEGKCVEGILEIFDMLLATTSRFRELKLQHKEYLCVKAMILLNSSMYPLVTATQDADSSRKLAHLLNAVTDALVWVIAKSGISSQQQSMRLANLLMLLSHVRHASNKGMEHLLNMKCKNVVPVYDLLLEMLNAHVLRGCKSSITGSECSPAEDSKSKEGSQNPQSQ

Row | Compound | agonistic/antagonistic activity for ERα (human ERα) | EC50 (human ERα; read-out: ERα Agonist EC50) | agonistic/antagonistic activity for ERβ (human ERβ) | EC50 (human ERβ; read-out: ERβ Agonist EC50) | alkaline phosphatase activity of Ishikawa cells (Ishikawa cells) | alkaline phosphatase activity / proliferation of Ishikawa cells (Ishikawa cells) | DNA level / DNA synthesis of MCF-7 cells (MCF-7 cells) | EC50 (human ERα; read-out: ERα antagonist EC50) | EC50 (human ERβ; read-out: ERβ antagonist EC50) | proliferation of Ishikawa cells (Ishikawa cells; [4]) | proliferation of MCF-7 cells (MCF-7 cells; [4]) | EC50 [1] | IC50 [2] | concentration range suppressing progesterone receptor (PR) mRNA levels [3]
1 | Oc1ccc(C=Cc2cc(O)c(O)c(O)c2)cc1 [Compound M8, 3,4,4′,5-tetrahydroxystilbene] | agonistic activity | 108 ± 10.2 nM | could act as ERβ agonists | 8.1 ± 1.6 nM | significantly lower compared with the control | stimulated the alkaline phosphatase | increased DNA synthesis | – | – | – | – | – | – | –
2 | Oc1cc(O)cc(C=Cc2cc(O)c(O)c(O)c2)c1 [Compound M11, 3,3′,4,5,5′-pentahydroxystilbene] | antagonistic activity | – | – | – | significantly lower compared with the control | stimulated the alkaline phosphatase | significantly lower compared with the control | 1010 ± 30.5 nM | > 5000 nM | – | – | – | – | –
3 | Oc1cc(C=Cc2cc(O)c(O)c(O)c2)cc(O)c1O [Compound M12, 3,3′,4,4′,5,5′-hexahydroxystilbene] | antagonistic activity | – | did not show an antagonistic effect | – | significantly lower compared with the control | stimulated the alkaline phosphatase | – | 110 ± 15.5 nM | > 5000 nM | – | – | – | – | –
4 | Oc1ccc(/C=C/c2cc(O)cc(O)c2)cc1 [resveratrol] | agonistic activity | 21.2 ± 2.2 nM | – | – | stimulated an increase in the level of the assessed markers | – | stimulated an increase in the level of the assessed markers | – | – | stimulated the proliferation | stimulated the proliferation | 5 to 10 µM | 2300 nM | 5 to 15 µM
